Our source for the IC50 values is US20200181104A1, “SSAO INHIBITORS AND USES THEREOF” (METACRINE, INC., priority 2018, published 2020).

Counter-ions that a name gives are not always drawn.

For the assay, the target named is T1, Recombinant Human SSAO/VAP-1/AOC3 (Homo sapiens, UniProt Q16853).
T1 construct: purchased R&D systems 3957-AO
T1 sequence (Q16853 1-763): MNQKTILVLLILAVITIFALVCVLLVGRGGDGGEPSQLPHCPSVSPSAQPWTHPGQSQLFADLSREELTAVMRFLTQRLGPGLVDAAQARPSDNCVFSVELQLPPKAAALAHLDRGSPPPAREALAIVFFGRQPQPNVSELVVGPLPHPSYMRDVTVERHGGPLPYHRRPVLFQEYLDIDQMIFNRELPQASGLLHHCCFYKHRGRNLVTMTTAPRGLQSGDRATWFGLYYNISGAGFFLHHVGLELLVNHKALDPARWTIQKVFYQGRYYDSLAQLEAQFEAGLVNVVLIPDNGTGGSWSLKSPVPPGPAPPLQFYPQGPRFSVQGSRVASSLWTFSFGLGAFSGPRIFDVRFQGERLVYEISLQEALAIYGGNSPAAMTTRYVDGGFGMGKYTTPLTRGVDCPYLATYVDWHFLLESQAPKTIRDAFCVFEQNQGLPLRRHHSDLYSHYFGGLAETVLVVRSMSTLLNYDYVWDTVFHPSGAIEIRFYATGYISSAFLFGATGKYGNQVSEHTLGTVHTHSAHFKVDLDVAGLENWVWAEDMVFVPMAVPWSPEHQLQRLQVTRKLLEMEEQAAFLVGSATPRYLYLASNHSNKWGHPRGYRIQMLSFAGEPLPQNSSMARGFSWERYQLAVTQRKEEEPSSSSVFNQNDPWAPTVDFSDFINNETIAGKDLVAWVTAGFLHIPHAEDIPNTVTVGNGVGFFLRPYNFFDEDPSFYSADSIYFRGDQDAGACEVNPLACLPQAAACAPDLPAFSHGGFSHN
In words: Human Semicarbazide-Sensitive Amine Oxidase (SSAO) Assay. The conditions noted are these: recombinant enzyme, 30 minutes preincubation at 37° C., benzylamine substrate, Amplex Ultra Red/HRP fluorescence. It counts as biochemical. The essentials: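 IC50 from kinetic Amplex Ultra Red/HRP fluorescence (ex 544, em 590 nm, 30-120 min) after benzylamine addition. Beforehand, 6-10 compound dilutions were preincubated 30 min at 37 °C with recombinant human SSAO in 50 mM HEPES (enzyme working concentration 2.5 μg/ml).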

For the compound `N#CC1(CNC(=O)C23CCC(c4ccc(OC/C(=C/F)CN)cc4)(CC2)CC3)CCOCC1` [Compound 2.62, (E)-4-(4-((2-(aminomethyl)-3-fluoroallyl)oxy)phenyl)-N-((4-cyanotetrahydro-2H-pyran-4-yl)methyl)bicyclo[2.2.2]octane-1-carboxamide], the IC50 (in general, the midpoint of a concentration-inhibition curve) was at most 10 nM.
In the case of `CNC(=O)C12CCC(c3ccc(OC/C(=C/F)CN)cc3)(CC1)C2` [Compound 4, (E)-4-(4-((2-(Aminomethyl)-3-fluoroallyl)oxy)phenyl)-N-methylbicyclo[2.2.1]heptane-1-carboxamide Hydrochloride], the IC50 is at most 10 nM.
Consider `CNC(=O)CCNC(=O)C12CCC(c3ccc(OC/C(=C/F)CN)cc3)(CC1)CC2` [Compound 2.17, (E)-4-(4-((2-(amino-methyl)-3-fluoroallyl)oxy)phenyl)-N-(3-(methylamino)-3-oxopropyl)bicyclo[2.2.2] octane-1-carboxamide], for which the IC50 was at most 10 nM.
In the case of `COCCOCCNC(=O)C12CCC(c3ccc(OC/C(=C/F)CN)cc3)(CC1)CC2` [Compound 2.32, (E)-4-(4-((2-(aminomethyl)-3-fluoroallyl)oxy)phenyl)-N-(2-(2-methoxyethoxy)ethyl) bicyclo[2.2.2]octane-1-carboxamide] it was at most 10 nM; in that of `NC/C(=C\F)COc1ccc(C23CCC(C(=O)NCCN4CCOCC4)(CC2)CC3)cc1` [Compound 2.75, (E)-4-(4-((2-(aminomethyl)-3-fluoroallyl)oxy)phenyl)-N-(2-morpholinoethyl)bicyclo[2.2.2] octane-1-carboxamide], at most 10 nM.
